# Test results: ChEMBL document CHEMBL3102756, “Synthesis and biological evaluation of a series of aminoalkyl-tetralones and tetralols as dual dopamine/serotonin ligands” (Eur J Med Chem, 2014)
# Columns and labels:
# [1] = molecular target: T1, 5-hydroxytryptamine receptor 2A (Homo sapiens, UniProt P28223); assay: Displacement of [3H]ketanserin from human 5-HT2A receptor
# [2] = molecular target: D(2) dopamine receptor (Homo sapiens) (UniProt P14416); settings: CHO
# Description: Competitive antagonist activity at human D2 receptor expressed in CHO cells assessed as inhibition of cAMP release after 30 mins by HTRF assay
# [3] = molecular target: T1, 5-hydroxytryptamine receptor 2A; settings: CHO
# [4] = molecular target: T1, 5-hydroxytryptamine receptor 2A; assay: Binding affinity for 5-HT2A receptor (unknown origin)
# T1 sequence (P28223 whole entry): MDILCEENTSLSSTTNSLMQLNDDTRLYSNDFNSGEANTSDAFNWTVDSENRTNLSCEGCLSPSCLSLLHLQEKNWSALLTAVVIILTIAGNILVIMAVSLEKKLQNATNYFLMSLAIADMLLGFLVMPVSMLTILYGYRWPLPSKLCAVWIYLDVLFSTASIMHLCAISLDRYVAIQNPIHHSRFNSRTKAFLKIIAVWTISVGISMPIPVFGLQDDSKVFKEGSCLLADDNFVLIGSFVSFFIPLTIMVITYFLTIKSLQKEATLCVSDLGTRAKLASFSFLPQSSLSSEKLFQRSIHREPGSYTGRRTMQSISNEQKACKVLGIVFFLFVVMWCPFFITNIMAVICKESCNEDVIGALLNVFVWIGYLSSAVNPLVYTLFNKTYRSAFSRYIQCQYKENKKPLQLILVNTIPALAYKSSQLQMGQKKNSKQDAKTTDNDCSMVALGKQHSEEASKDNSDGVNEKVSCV
# Sequence of D(2) dopamine receptor (Homo sapiens) (P14416 whole entry): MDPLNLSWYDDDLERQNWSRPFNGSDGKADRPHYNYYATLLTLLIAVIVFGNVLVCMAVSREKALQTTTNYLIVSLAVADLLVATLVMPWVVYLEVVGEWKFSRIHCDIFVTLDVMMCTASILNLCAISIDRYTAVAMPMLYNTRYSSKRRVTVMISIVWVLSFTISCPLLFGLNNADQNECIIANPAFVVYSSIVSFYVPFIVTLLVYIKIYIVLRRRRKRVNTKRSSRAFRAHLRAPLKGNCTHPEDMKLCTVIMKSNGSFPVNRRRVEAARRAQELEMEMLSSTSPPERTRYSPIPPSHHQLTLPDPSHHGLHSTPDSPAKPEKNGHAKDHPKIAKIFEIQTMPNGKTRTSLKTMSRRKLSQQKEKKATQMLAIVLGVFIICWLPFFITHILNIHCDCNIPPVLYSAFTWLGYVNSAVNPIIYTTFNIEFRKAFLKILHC
Ki [1],pKb [2],pKb [3],Ki [4],Structure (SMILES)
513 nM,,,,COc1ccccc1N1CCN(CCC2CCc3ccc([N+](=O)[O-])cc3C2O)CC1 (stereo unspecified)
42.7 nM,,,,COc1ccccc1N1CCN(CCC2CCc3ccc(N)cc3C2=O)CC1 (stereo unspecified)
794 nM,,,,COc1ccccc1N1CCN(CCC2CCc3ccc([N+](=O)[O-])cc3C2=O)CC1 (stereo unspecified)
5.01 nM,7.53,8.76,,Nc1ccc2c(c1)C(=O)C(CCN1CCC(c3noc4cc(F)ccc34)CC1)CC2 (stereo unspecified)
19.1 nM,,,,O=C1c2cc([N+](=O)[O-])ccc2CCC1CCN1CCC(c2noc3cc(F)ccc23)CC1 (stereo unspecified)
,,,2.75 nM,O=C1CC(CN2CCC(c3noc4cc(F)ccc34)CC2)Cc2ccccc21 (stereo unspecified)
23.4 nM,,,,Nc1ccc2c(c1)C(=O)C(CCN1CCC(C(=O)c3ccc(F)cc3O)CC1)CC2 (stereo unspecified)
631 nM,,,,O=C1CC(CN2CCC(C(=O)c3ccc(F)cc3)CC2)Cc2cc(-c3ccccc3)ccc21 (stereo unspecified)
15.8 nM,7.55,7.84,,O=C1CC(CN2CCC(c3noc4cc(F)ccc34)CC2)Cc2cc(-c3ccccc3)ccc21 (stereo unspecified)
158 nM,,,,COc1ccccc1N1CCN(CCC2CCc3ccc(N)cc3C2O)CC1 (stereo unspecified)
6.61 nM,,,,Nc1ccc2c(c1)C(O)C(CCN1CCC(c3noc4cc(F)ccc34)CC1)CC2 (stereo unspecified)
4.47 nM,6.32,7.82,,Nc1ccc2c(c1)C(O)C(CCN1CCC(C(=O)c3ccc(F)cc3O)CC1)CC2 (stereo unspecified)
63.1 nM,,,,CC(=O)c1ccc2c(c1)CC(CN1CCC(C(=O)c3ccc(F)cc3)CC1)CC2=O (stereo unspecified)
11 nM,,,,O=[N+]([O-])c1ccc2c(c1)C(O)C(CCN1CCC(c3noc4cc(F)ccc34)CC1)CC2 (stereo unspecified)
31.6 nM,,,,CC(=O)c1ccc2c(c1)CC(CN1CCC(c3noc4cc(F)ccc34)CC1)CC2=O (stereo unspecified)
